The values below come from patent publication US8895544B2, “Indazoles” (Pfizer Limited, priority 2011, dated 2014).

Assay [1] concerns IFNγ production in human isolated PBMC. Description: hrIL2/haCD3 stimulated IFNγ production in human isolated PBMC. In kind it is cell-based. To be noted: IL-2/aCD3 stimulated IFNγ, 18 h. On the procedure: Functional Assessment of JAK Inhibitory Potency Using hrIL-2 and haCD3 stimuated IFNγ Production in Human Isolated PBMC.
(§1) Isolation of human Peripheral Blood Mononuclear Cells (PBMC)
Peripheral venous blood from healthy volunteers of either sex was collected into 50 ml centrifuge tubes (Corning) containing 1 ml of 5 mg/ml heparin (Sigma H3400) in distilled water. The heparininsed blood was diluted using an equal volume of sterile Dulbeccos phosphate buffered saline (PBS: Invitrogen 14190) before decanting into 50 ml Leucosep tubes (Sigma A0561). […]
180 μl of PBMC cell suspension was added to each well of a sterile 96 well, flat bottomed plate (Corning-Costar 3598). […] 100 μl supernatent was collected, diluted 1:4 and IFNγ content determined using a commercially available IFNγ ELISA kit (Invitrogen CHC1233) as per the manufacturer's instructions. Absorbances were measured using a Spectramax 190/250 plate reader (Molecular Devices). The IFNγ concentration of test wells was expressed as % of the IFNγ concentration produced in wells exposed to IL-2/aCD3 in the absence of test compound, and IC50 values determined using a 4 parameter curve fit.

Another assay relates to JAK1/3. Put plainly: JAK1/3 whole cell reporter gene assay (IL-4 stimulated STAT6-beta-lactamase reporter). The class given is cell-based. The conditions noted are these: Cellsensor STAT6-bla-RA-1 cell line, CD40 ligand and IL-4 stimulated. (In general: Reporter assays use an easily measured gene product as a stand-in for the process of interest.)
Assay [2] deals with pYSTAT5 in PBMC lymphocytes. Description: Duration of action (DoA) after washout, pYSTAT5 in PBMC lymphocytes. The class given is cell-based, human. To be noted: incubated at approximate IC80 for 1 h, then washed. On the procedure:
90 μl of PBMC cell suspension was added to each well of a 96 well plate (Corning-Costar 3598) along with 10 μl of test compound dilution giving a final assay concentration range of 0.03 nM to 1 μM in half log increments. The plates were incuated at 37° C., in […] for 1 h before 10 μl rhIL2 (3 μg/ml final assay concentration) was added to appropriate wells and the plates incubated at the stated conditions for a further 15 min. 25 μl of 20% formaldehyde (Tousimis) was added to all wells and the plates left at room temperature for 10 min prior to centrifugation at 400 g for 4 min at room temperature. 200 μl PBS was added to each well and centrifugation repeated as just described. The supernatent was removed and 50 μl of a 1:50 dilution of Mouse anti-human CD3 (BD Biosciences 555329) in 0.1% BSA (Sigma A7906)/PBS added to each well (excluding control wells) and the plates incubated at room temperature in the dark for 30 min. […] Plates were read the next day on a FACS Canto (Becton Dickinson). […]
For determination of compound duration of action (DoA) cells were incubated with compound at an approximate IC80 concentration for 1 h before being washed by cenrifugation and resuspension in assay media without compound. […] DoA was calculated as the time taken for the inhibition to reverse by 50% (T50%)

Another assay addresses JAK3 enzyme (Homo sapiens (Human), UniProt P52333). Description: JAK3 isolated enzyme high ATP Caliper endpoint assay. The class given is biochemical. To be noted: 400 μM ATP, read-out: JAK-3 IC50.
The test system of assay [3] is pYSTAT5 in PBMC lymphocytes. Put plainly: hrIL2/haCD3 stimulated pYSTAT5 in PBMC lymphocytes. In kind it is cell-based. The conditions noted are these: rhIL2 stimulated pYSTAT5, human PBMC lymphocytes. As for the experimental part:
as §1
Peripheral venous blood from healthy volunteers of either sex was collected into 50 ml centrifuge tubes (Corning) containing 1 ml of 5 mg/ml heparin (Sigma H3400) in distilled water. The heparininsed blood was diluted using an equal volume of sterile Dulbeccos phosphate buffered saline (PBS: Invitrogen 14190) before decanting into 50 ml Leucosep tubes (Sigma A0561). The Leucosep tubes were centrifuged at 400 g for 30 min at room temperature and the buffycoat at the Ficoll:Plamsa interface collected into clean centrifuge tubes and the volum made up to 50 ml using PBS and centrifuging at 200 g for 10 min at room temperature. The supernatent was discarded and the pellet resuspended in assay media (Dulbeccos Modified Essential Medium (DMEM: Invitrogen 11971025) containing 5% Foetal Bovine Serum, 100 U/mIpenicilin/100 μg/ml streptomycin (Sigma P4458) at 2×10^6 lymphocytes per ml for IFNγ experiments and at 1×10^6 lymphocytes per ml for the pYSTAT5 experiments.
hrIL2/haCD3 Stimulated pYSTAT5 in PBMC Lymphocytes
90 μl of PBMC cell suspension was added to each well of a 96 well plate (Corning-Costar 3598) along with 10 μl of test compound dilution giving a final assay concentration range of 0.03 nM to 1 μM in half log increments. […] Plates were read the next day on a FACS Canto (Becton Dickinson). […]

The target of another assay is JAK2 (Homo sapiens (Human), UniProt O60674). Put plainly: JAK2 PathHunter assay (prolactin response, U2OS cell line). To be noted: PathHunter U2OS cell line expressing JAK2, prolactin challenge; read-out: JAK-2 IC50. The class given is cell-based. As for the experimental part: JAK1 and JAK2 PathHunter Assay
4 mM stock solutions of test compounds are prepared and serially diluted in 100% DMSO. A standard curve using PF-00956980 at a top concentration of 10 mM is also prepared. High percentage effect (HPE) is defined by 10 mM PF-00956980 and 0% effect (ZPE) is defined by 100% DMSO. Plates containing 1 μl of serially diluted compound, standard and HPE/ZPE are diluted by addition of 65 μl compound diluent (PBS minus Ca^2+, minus Mg^2+ with 0.05% pluronic F127) using a Multidrop Combi. This dilutes test compounds to a top concentration of 60 μM. Final top assay concentration is 10 μM as the assay dilution factor is six. Final DMSO concentration is 0.25%.
Prolactin (Peprotech) is used for the agonist challenge. Prolactin is prepared at 40 μM in compound diluent to generate a stock solution and further diluted to 6 μM in compound diluent. A standard curve is prepared in compound diluent. Prolactin is also diluted to a concentration of 15 nM (2.5 nM fac). Antagonism of the JAK1 or JAK2 prolactin response is measured in the presence of prolactin at an approximate […], concentration for JAK1 and approximately EC100 for JAK2. […]
Assays are performed in Greiner white 384 well plates. […] Luminescence signal is read using an Envision. Test compound data are expressed as percentage inhibition defined by HPE and ZPE values for each plate. […]

The target of a further assay is JAK1 enzyme (Homo sapiens (Human), UniProt P23458). Put plainly: JAK1 isolated enzyme high ATP Caliper endpoint assay.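 Further: enzyme at 10 nM preincubated with inhibitor 30 min, then kinase reaction 120 min at room temperature, peptide phosphorylation read by microfluidic mobility shift with fluorescence, inhibition relative to HPE and ZPE plate controls.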 To be noted: 2.5 mM ATP, read-out: JAK-1 IC50. The class given is biochemical.

Some results are limits rather than exact numbers.

JAK3 enzyme, sequence (P52333 whole entry): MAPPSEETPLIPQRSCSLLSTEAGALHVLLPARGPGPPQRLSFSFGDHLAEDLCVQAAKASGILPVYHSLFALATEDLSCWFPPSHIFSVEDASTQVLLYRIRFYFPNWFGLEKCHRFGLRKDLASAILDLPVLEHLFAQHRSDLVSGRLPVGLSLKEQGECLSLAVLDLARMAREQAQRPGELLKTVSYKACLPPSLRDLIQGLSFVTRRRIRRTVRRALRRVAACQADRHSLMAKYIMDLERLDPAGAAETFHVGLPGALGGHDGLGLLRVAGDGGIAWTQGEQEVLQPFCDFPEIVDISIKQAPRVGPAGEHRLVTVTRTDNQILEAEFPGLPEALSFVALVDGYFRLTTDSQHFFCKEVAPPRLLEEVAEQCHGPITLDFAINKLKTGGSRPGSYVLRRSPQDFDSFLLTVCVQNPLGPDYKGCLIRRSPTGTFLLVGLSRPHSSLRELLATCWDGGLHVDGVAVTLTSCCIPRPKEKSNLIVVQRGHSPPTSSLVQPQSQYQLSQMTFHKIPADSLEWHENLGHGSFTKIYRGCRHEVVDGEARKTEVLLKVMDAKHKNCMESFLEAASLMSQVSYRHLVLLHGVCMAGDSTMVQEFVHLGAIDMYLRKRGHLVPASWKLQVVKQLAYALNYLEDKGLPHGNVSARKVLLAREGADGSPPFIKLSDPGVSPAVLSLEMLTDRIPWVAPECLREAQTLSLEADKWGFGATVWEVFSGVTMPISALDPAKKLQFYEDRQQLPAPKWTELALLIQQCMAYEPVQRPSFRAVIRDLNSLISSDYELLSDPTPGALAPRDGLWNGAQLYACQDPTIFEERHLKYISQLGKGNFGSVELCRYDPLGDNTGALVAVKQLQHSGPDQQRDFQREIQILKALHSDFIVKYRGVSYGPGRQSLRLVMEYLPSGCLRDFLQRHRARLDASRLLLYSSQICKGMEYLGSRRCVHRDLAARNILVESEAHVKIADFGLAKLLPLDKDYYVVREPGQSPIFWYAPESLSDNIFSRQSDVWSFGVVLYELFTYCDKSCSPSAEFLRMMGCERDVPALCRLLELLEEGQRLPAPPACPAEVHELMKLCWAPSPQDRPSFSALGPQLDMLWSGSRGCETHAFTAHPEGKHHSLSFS
JAK2, sequence (O60674 whole entry): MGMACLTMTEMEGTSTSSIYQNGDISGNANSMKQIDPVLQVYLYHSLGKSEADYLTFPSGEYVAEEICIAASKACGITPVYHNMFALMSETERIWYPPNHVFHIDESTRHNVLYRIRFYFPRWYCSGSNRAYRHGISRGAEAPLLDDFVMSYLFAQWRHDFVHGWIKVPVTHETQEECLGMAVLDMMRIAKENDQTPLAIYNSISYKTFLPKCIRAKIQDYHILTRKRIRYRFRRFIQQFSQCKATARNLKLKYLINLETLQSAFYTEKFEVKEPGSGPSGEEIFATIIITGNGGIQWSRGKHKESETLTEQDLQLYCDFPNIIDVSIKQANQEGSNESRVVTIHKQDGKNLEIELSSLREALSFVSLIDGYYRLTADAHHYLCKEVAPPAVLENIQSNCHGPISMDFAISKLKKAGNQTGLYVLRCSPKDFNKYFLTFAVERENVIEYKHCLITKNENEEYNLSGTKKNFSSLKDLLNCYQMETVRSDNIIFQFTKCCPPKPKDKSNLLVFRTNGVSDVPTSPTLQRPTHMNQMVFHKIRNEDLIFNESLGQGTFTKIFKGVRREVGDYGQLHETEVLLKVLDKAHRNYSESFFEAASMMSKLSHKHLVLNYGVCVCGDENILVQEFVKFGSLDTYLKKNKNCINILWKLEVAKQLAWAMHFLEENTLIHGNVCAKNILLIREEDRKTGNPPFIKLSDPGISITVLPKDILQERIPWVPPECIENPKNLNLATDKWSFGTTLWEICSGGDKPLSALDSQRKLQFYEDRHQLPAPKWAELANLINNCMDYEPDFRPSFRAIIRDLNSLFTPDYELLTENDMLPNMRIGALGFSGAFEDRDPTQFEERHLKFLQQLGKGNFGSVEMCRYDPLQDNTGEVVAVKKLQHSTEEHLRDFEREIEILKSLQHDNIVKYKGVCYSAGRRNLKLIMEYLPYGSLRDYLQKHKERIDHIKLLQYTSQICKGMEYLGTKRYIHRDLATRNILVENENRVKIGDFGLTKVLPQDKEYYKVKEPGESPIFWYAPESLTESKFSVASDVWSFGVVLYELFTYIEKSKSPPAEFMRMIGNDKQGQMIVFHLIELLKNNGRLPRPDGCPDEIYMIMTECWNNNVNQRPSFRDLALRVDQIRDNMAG
JAK1 enzyme, sequence (P23458 whole entry): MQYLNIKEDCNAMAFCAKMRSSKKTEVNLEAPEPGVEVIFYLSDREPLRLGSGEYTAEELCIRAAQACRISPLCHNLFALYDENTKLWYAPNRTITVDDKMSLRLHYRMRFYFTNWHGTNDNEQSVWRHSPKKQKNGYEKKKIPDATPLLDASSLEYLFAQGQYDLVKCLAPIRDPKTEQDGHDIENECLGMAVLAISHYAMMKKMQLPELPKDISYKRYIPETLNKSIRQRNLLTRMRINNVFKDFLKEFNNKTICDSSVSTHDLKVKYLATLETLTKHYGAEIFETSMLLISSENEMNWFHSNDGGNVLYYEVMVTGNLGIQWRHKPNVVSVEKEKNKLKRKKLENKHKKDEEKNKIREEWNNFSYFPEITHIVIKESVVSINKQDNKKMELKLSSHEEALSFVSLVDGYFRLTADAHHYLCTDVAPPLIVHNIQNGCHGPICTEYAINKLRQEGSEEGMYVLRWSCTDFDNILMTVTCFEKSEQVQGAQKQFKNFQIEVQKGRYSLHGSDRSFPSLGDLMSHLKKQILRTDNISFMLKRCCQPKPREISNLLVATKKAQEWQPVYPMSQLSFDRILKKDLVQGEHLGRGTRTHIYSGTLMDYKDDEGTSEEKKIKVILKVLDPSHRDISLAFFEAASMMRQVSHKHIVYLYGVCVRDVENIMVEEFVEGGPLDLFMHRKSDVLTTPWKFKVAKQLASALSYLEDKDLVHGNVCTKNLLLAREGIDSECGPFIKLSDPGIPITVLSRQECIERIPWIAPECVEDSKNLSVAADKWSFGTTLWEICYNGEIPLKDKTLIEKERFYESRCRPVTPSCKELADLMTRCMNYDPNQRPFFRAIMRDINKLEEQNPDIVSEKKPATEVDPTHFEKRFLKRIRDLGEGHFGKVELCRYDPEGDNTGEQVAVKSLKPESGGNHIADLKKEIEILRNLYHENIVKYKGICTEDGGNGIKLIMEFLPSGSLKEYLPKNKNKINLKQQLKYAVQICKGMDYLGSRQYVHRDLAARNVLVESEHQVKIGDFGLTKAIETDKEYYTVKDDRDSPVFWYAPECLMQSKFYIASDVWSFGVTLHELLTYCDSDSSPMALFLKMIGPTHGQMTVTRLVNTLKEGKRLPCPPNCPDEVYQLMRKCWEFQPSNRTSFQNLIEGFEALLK
Protocol for JAK1 enzyme: JAK1 Isolated Enzyme High ATP Caliper Endpoint Assay
4 mM stock solutions of test compounds are prepared and serially diluted in 100% DMSO. A standard curve using PF-00956980 (commercially available from Sigma Aldrich) at a top concentration of 4 mM is also prepared. High percentage effect (HPE) is defined by 500 μM PF-00956980 and 0% effect (ZPE) is defined by 100% DMSO. Greiner 384 well plates are prepared containing 400 nl of serially diluted compound, standard and HPE/ZPE. Final top assay concentration is 80 μM as the assay dilution factor is fifty.
JAK1 enzyme (Invitrogen) stock solution is made up at 5.2 μM in sterile water. JAK1 enzyme stock is diluted to 20 nM in assay buffer (10 mM HEPES free acid pH 7.5, 10 mM HEPES free base pH 7.5, 10 mM MgCL2, 0.0005% Tween-20, 0.01% BSA) containing 2 mM DTT (all supplied by Sigma) with the addition of one protease tablet per 25 mls buffer (Roche). ATP is made up at 10 mM stock in sterile water and diluted to 5 mM in assay buffer. Peptide H236 (Caliper Life Sciences) is made up at 1.5 mM in 100% DMSO and diluted to 3 μM in assay buffer. Stop buffer comprises 140 mM HEPES, 22.5 mM EDTA (Sigma) and 0.15% coating reagent (Caliper Life Sciences).
Assays are performed in Greiner polypropylene 384 well plates. Following compound preparation within the plate 10 μl of enzyme in assay buffer containing DTT is added using a Multidrop Micro. Final assay concentration of enzyme is 10 nM. Compound and enzyme are pre-incubated for 30 minutes at room temperature using low evaporation lids before addition of 10 μl ATP/peptide mixture in assay buffer using a Multidrop Micro. Final assay concentrations are 2.5 mM ATP and 1.5 μM peptide. Plates are foil sealed and incubated for a further 120 minutes at room temperature. Stop solution is added to the plates (20 μl/well) using a Multidrop Micro and plates are loaded onto the Caliper EZReader II. Data is generated by the shift in mobility of non-phosphorylated peptide substrates and phosphorylated products by electrophoresis within a chip and detected via LED induced fluorescence. Data is analysed using LabChip EZReader software which calculates the relative heights of the substrate and product peaks and reports product/product plus substrate peak ratio. Test compound data are subsequently expressed as percentage inhibition defined by HPE and ZPE values for each plate. Percentage inhibition in the presence of test compound is plotted against compound concentration on a log scale to determine an IC50 from the resultant sigmoid curve.
Protocol for JAK1/3: JAK1/3 Whole Cell Reporter Gene Assay
4 mM stock solutions of test compounds are prepared and serially diluted in 100% DMSO. A standard curve using PF-00956980 at a top concentration of 10 mM is also prepared. High percentage effect (HPE) is defined by 10 mM PF-00956980 and 0% effect (ZPE) is defined by 100% DMSO. Plates containing 1 μl of serially diluted compound, standard and HPE/ZPE are diluted by addition of 39 μl assay media (Optimem with 100 uM NEAA, 10 uM sodium pyruvate and 100 U penicillin/100 ug streptomycin (Invitrogen)) using a Multidrop Combi. This dilutes test compounds to a top concentration of 100 μM. Final top assay concentration is 10 μM as the assay dilution factor is ten. Final DMSO concentration is 0.25%.
CD40 (Invitrogen) is prepared at 0.1 mg/ml in PBS minus Ca^2+, minus Mg^2+. The concentration of CD40 required for activation is predetermined by CD40 titration with the cell line. […]
Assays are performed in Greiner 384 well black polypropylene clear bottomed plates. The Invitrogen Cellsensor STATE-bla-RA-1 cell line is thawed, counted and resuspended at 1.88×10^6 cells/ml. […] Beta lactamase fluorescence signal is read at 460 nm (blue) and 530 nm (green) and a ratio calculated using an Envision. Test compound data are expressed as percentage inhibition defined by HPE and ZPE values for each plate. […]
Protocol for JAK3 enzyme: JAK3 Isolated Enzyme High ATP Caliper Endpoint Assay
4 mM stock solutions of test compounds are prepared and serially diluted in 100% DMSO. […] Greiner 384 well plates are prepared containing 400 nl of serially diluted compound, standard and HPE/ZPE. Final top assay concentration is 80 μM as the assay dilution factor is fifty.
JAK3 enzyme stock is diluted to 2 nM in assay buffer (10 mM HEPES free acid pH 7.5, 10 mM HEPES free base pH 7.5, 10 mM MgCL2, 0.0005% Tween-20, 0.01% BSA) containing 2 mM DTT (all supplied by Sigma). ATP is made up at 10 mM stock in sterile water and diluted to 800 μM in assay buffer. Peptide (American peptide company) is made up at 30 mM in 100% DMSO and diluted to 3 μM in assay buffer.
Assays are performed in Greiner polypropylene 384 well plates. Following compound preparation within the plate 10 μl of enzyme in assay buffer containing DTT is added using a Multidrop Micro. Final assay concentration of enzyme is 1 nM. Compound and enzyme are pre-incubated for 60 minutes at room temperature using low evaporation lids before addition of 10 μl ATP/peptide mixture in assay buffer using a Multidrop Micro. […] Plates are foil sealed and incubated for a further 60 minutes at room temperature. Stop solution is added to the plates (20 μl/well) using a Multidrop Micro and plates are loaded onto the Caliper EZReader II. Data is generated by the shift in mobility of non-phosphorylated peptide substrates and phosphorylated products by electrophoresis within a chip and detected via LED induced fluorescence. Data is analysed using LabChip EZReader software which calculates the relative heights of the substrate and product peaks and reports product/product plus substrate peak ratio. Test compound data are subsequently expressed as percentage inhibition defined by HPE and ZPE values for each plate. Percentage inhibition in the presence of test compound is plotted against compound concentration on a log scale to determine an IC50 from the resultant sigmoid curve.

Regarding `CCc1cc(O)c(F)cc1-c1ccc2c(-c3nc4c([nH]3)CCN(C(=O)c3cnc(N5CCCCC5)cn3)C4)n[nH]c2c1` [Example 4, {2-[6-(2-Ethyl-5-fluoro-4-hydroxy-phenyl)-1H-indazol-3-yl]-1,4,6,7-tetrahydro-imidazo[4,5-c]pyridin-5-yl}-(5-piperidin-1-yl-pyrazin-2-yl)-methanone], the IC50 in assay [1] turned out to be 70 nM; with JAK1/3 it was 140 nM; at JAK3 enzyme, 0.5 nM; in assay [3], 45 nM; at JAK2, 176 nM. For the same compound, the “DoA (time taken for the inhibition to reverse by 50%, T50%)” value in assay [2] is over 8.8 h.

As for `CCc1cc(O)c(F)cc1-c1ccc2c(-c3nc4c([nH]3)CCN(Cc3ccc(O)cc3)C4)n[nH]c2c1` [Example 19, 5-Ethyl-2-fluoro-4-{3-[5-(4-hydroxy-benzyl)-4,5,6,7-tetrahydro-1H-imidazo[4,5-c]pyridin-2-yl]-1H-indazol-6-yl}-phenol], the figures for the IC50 on JAK3 enzyme and on JAK1 enzyme were 2.2 nM and 4.3 nM, respectively.

In general, IC50 refers to the midpoint of a concentration-inhibition curve.
